The record followed here is patent US20250101436A1, “APTAMERS AND SMALL MOLECULE LIGANDS” (MeiraGTx UK II Limited, priority 2021, published 2025).

One data set deals with N5-12G6 riboswitch. Briefly: Firefly luciferase assay, N5-12G6 riboswitch in HEK293 cells. The settings on record: 12G6 riboswitch, luciferase, HEK293, 2 μM.
Protocol: Transfection: 3.5×10^4 human embryonic kidney (HEK) 293 cells were plated in a 96-well flat bottom plate the day before transfection. Plasmid DNA (500 ng) was added to a tube or a 96-well U-bottom plate. Separately, TransIT-293 reagent (Mirus; 1.4 L) was added to 50 μL Optimum I media (Life Technologies) and allowed to sit for 5 minutes at room temperature (RT). Then, 50 μL of this diluted transfection reagent was added to the DNA, mixed, and incubated at RT for 20 min. Finally, 7 μL of this solution was added to a well of cells in the 96-well plate. Four hours after transfection, medium containing transfection solution was replaced by medium with either TPP or fursultiamine as aptamer ligands.
Firefly luciferase assay of cultured cells: Twenty-four hours after media change, plates were removed from the incubator, and equilibrated to RT for several minutes on a lab bench, then aspirated. Glo-lysis buffer (Promega, 100 μL, RT) was added, and the plates allowed to remain at RT for at least 5 minutes. Then, the well contents were mixed by 50 μL trituration, and 20 μL of each sample was mixed with 20 μL of bright-glo reagent (Promega) that had been diluted to 10% in glo-lysis buffer. 96 wells were spaced on an opaque white 384-well plate. Following a 5 min incubation at RT, luminescence was measured using a Tecan machine with 500 ms read time. The luciferase activity was expressed as mean arbitrary light units (ALU)±S.D., and fold induction was calculated as the quotient of the luciferase activity obtained from cells with TPP or analog compound treatment divided by the luciferase activity obtained from cells without TPP or analog compound treatment.
Regarding `Fc1cc(CNc2cncc(Cl)c2N2CCNCC2)cc2nccnc12` [compound 077, 5-chloro-N-((8-fluoroquinoxalin-6-yl)methyl)-4-(piperazin-1-yl)pyridin-3-amine], the “Fold induction 2 μM (HEK)” value was found to be 43.5 fold.

The data set is the same for the next values; noted with them: Homo sapiens, HEK293, read-out: Fold induction 2 μM (HEK), 12G6 riboswitch, luciferase, HEK293, 2 μM.
Consider `FC(F)c1cncc(NCc2ccc3nccnc3c2)c1N1CCNCC1` [compound 076, 5-(difluoromethyl)-4-(piperazin-1-yl)-N-(quinoxalin-6-ylmethyl)pyridin-3-amine], for which the fold induction at 2 µM was found to be 117. For the compound `Fc1c(CNc2cncc(Cl)c2N2CCNCC2)ccc2nccnc12` [compound 078, 5-chloro-N-((5-fluoroquinoxalin-6-yl)methyl)-4-(piperazin-1-yl)pyridin-3-amine], the fold induction at 2 µM came to 6.1. For the compound `Fc1cncc(NCc2ccc3nccnc3c2F)c1N1CCNCC1` [compound 079, 5-fluoro-N-((5-fluoroquinoxalin-6-yl)methyl)-4-(piperazin-1-yl)pyridin-3-amine], the fold induction at 2 µM stood at 4.4. On the same count and under the same terms, in the case of `Fc1cncc(NCc2cc(F)c3nccnc3c2)c1N1CCNCC1` [compound 080, 5-fluoro-N-((8-fluoroquinoxalin-6-yl)methyl)-4-(piperazin-1-yl)pyridin-3-amine] it was 31.2.

For the compound `Fc1cncc(NCc2cc(Cl)c3nccnc3c2)c1N1CCNCC1` [compound 081, N-((8-chloroquinoxalin-6-yl)methyl)-5-fluoro-4-(piperazin-1-yl)pyridin-3-amine], the fold induction at 2 µM came to 3.9. On the same count and under the same terms, for `Fc1cc2nccnc2cc1CNc1cncc(F)c1N1CCNCC1` [compound 082, 5-fluoro-N-((7-fluoroquinoxalin-6-yl)methyl)-4-(piperazin-1-yl)pyridin-3-amine] the value was 24.7; for `Fc1cncc(NCc2cc3nccnc3cc2Cl)c1N1CCNCC1` [compound 083, N-((7-chloroquinoxalin-6-yl)methyl)-5-fluoro-4-(piperazin-1-yl)pyridin-3-amine], 12.8; for `Cc1cncc(NCc2cc(F)c3nccnc3c2)c1N1CCNCC1` [compound 084, N-((8-fluoroquinoxalin-6-yl)methyl)-5-methyl-4-(piperazin-1-yl)pyridin-3-amine], 66.4. `Cc1cncc(NCc2cc(Cl)c3nccnc3c2)c1N1CCNCC1` [compound 085, N-((8-chloroquinoxalin-6-yl)methyl)-5-methyl-4-(piperazin-1-yl)pyridin-3-amine]: the fold induction at 2 µM stood at 5.4. As to `Cc1cncc(NCc2cc3nccnc3cc2F)c1N1CCNCC1` [compound 086, N-((7-fluoroquinoxalin-6-yl)methyl)-5-methyl-4-(piperazin-1-yl)pyridin-3-amine], the fold induction at 2 µM came to 17.3. For the compound `Cc1cncc(NCc2cc3nccnc3cc2Cl)c1N1CCNCC1` [compound 087, N-((7-chloroquinoxalin-6-yl)methyl)-5-methyl-4-(piperazin-1-yl)pyridin-3-amine], the fold induction at 2 µM stood at 20.9.

With `Fc1cc(CNc2cnccc2N2CCCNCC2)cc2nccnc12` [compound 088, 4-(1,4-diazepan-1-yl)-N-((8-fluoroquinoxalin-6-yl)methyl)pyridin-3-amine], the fold induction at 2 µM came to 2.6. For the compound `Clc1cc(CNc2cnccc2N2CCCNCC2)cc2nccnc12` [compound 089, N-((8-chloroquinoxalin-6-yl)methyl)-4-(1,4-diazepan-1-yl)pyridin-3-amine], the fold induction at 2 µM was found to be 4.8. Still for that read-out and setting: in the case of `Fc1cc2nccnc2cc1CNc1cnccc1N1CCCNCC1` [compound 090, 4-(1,4-diazepan-1-yl)-N-((7-fluoroquinoxalin-6-yl)methyl)pyridin-3-amine] it was 15. In the case of `Clc1cc2nccnc2cc1CNc1cnccc1N1CCCNCC1` [compound 091, N-((7-chloroquinoxalin-6-yl)methyl)-4-(1,4-diazepan-1-yl)pyridin-3-amine], the fold induction at 2 µM was 28.4. `Fc1cncc(NCc2ccc3nccnc3c2)c1N1CCCNCC1` [compound 092, 4-(1,4-diazepan-1-yl)-5-fluoro-N-(quinoxalin-6-ylmethyl)pyridin-3-amine]: the fold induction at 2 µM turned out to be 34.9. `Clc1cncc(NCc2ccc3nccnc3c2)c1N1CCCNCC1` [compound 093, 5-chloro-4-(1,4-diazepan-1-yl)-N-(quinoxalin-6-ylmethyl)pyridin-3-amine]: the fold induction at 2 µM was 30.7. Same read-out and setting: for `Cc1cncc(NCc2ccc3nccnc3c2)c1N1CCCNCC1` [compound 094, 4-(1,4-diazepan-1-yl)-5-methyl-N-(quinoxalin-6-ylmethyl)pyridin-3-amine] the value was 35.1. As for `Fc1cncc(NCc2cc(F)c3nccnc3c2)c1N1CCCNCC1` [compound 095, 4-(1,4-diazepan-1-yl)-5-fluoro-N-((8-fluoroquinoxalin-6-yl)methyl)pyridin-3-amine], the fold induction at 2 µM came to 8.9.

With `Fc1cncc(NCc2cc3nccnc3cc2Cl)c1N1CCCNCC1` [compound 096, N-((7-chloroquinoxalin-6-yl)methyl)-4-(1,4-diazepan-1-yl)-5-fluoropyridin-3-amine], the fold induction at 2 µM is 16.2.

With `Clc1cc2nccnc2cc1CNc1cnccc1N1C[C@@H]2C[C@H]1CN2` [compound 097, 4-((1S,4S)-2,5-diazabicyclo[2.2.1]heptan-2-yl)-N-((7-chloroquinoxalin-6-yl)methyl)pyridin-3-amine], the fold induction at 2 µM came to 2.6. With `Clc1cc2nccnc2cc1CNc1cnccc1N1C[C@H]2C[C@@H]1CN2` [compound 098, 4-((1R,4R)-2,5-diazabicyclo[2.2.1]heptan-2-yl)-N-((7-chloroquinoxalin-6-yl)methyl)pyridin-3-amine], the fold induction at 2 µM is 4.5. For `Clc1cc2nccnc2cc1CNc1cnccc1N1CC2CNCC2C1` (centres unmarked) [compound 099, N-((7-chloroquinoxalin-6-yl)methyl)-4-(hexahydropyrrolo[3,4-c]pyrrol-2(1H)-yl)pyridin-3-amine], the fold induction at 2 µM turned out to be 8.2. Turning to `C[C@@H]1CNCCN1c1ccncc1NCc1cc2nccnc2cc1F` [compound 100, (R)—N-((7-fluoroquinoxalin-6-yl)methyl)-4-(2-methylpiperazin-1-yl)pyridin-3-amine], the fold induction at 2 µM worked out at 3.5. On the same count and under the same terms, for `C[C@H]1CN(c2ccncc2NCc2cc(Cl)c3nccnc3c2)CCN1` [compound 101, (S)—N-((8-chloroquinoxalin-6-yl)methyl)-4-(3-methylpiperazin-1-yl)pyridin-3-amine] the value was 2.2; for `C[C@H]1CN(c2ccncc2NCc2cc3nccnc3cc2F)CCN1` [compound 102, (S)—N-((7-fluoroquinoxalin-6-yl)methyl)-4-(3-methylpiperazin-1-yl)pyridin-3-amine], 13.6; for `C[C@H]1CN(c2c(F)cncc2NCc2ccc3nccnc3c2)CCN1` [compound 103, (S)-5-fluoro-4-(3-methylpiperazin-1-yl)-N-(quinoxalin-6-ylmethyl)pyridin-3-amine], 23.3. Take `Cc1cncc(NCc2ccc3nccnc3c2)c1N1CCN[C@@H](C)C1` [compound 104, (S)-5-methyl-4-(3-methylpiperazin-1-yl)-N-(quinoxalin-6-ylmethyl)pyridin-3-amine]: the fold induction at 2 µM was 33.3. In the case of `Fc1cc(CNc2cnccc2O[C@@H]2CCNC2)cc2nccnc12` [compound 105, (R)—N-((8-fluoroquinoxalin-6-yl)methyl)-4-(pyrrolidin-3-yloxy)pyridin-3-amine], the fold induction at 2 µM was determined as 37.7.

As to `Clc1cc(CNc2cnccc2O[C@@H]2CCNC2)cc2nccnc12` [compound 106, (R)—N-((8-chloroquinoxalin-6-yl)methyl)-4-(pyrrolidin-3-yloxy)pyridin-3-amine], the fold induction at 2 µM was 22.2.

For `Fc1cc2nccnc2cc1CNc1cnccc1O[C@@H]1CCNC1` [compound 107, (R)—N-((7-fluoroquinoxalin-6-yl)methyl)-4-(pyrrolidin-3-yloxy)pyridin-3-amine], the fold induction at 2 µM came out at 48.7. As to `Clc1cc2nccnc2cc1CNc1cnccc1O[C@@H]1CCNC1` [compound 108, (R)—N-((7-chloroquinoxalin-6-yl)methyl)-4-(pyrrolidin-3-yloxy)pyridin-3-amine], the fold induction at 2 µM was 37.5. As for `Fc1cncc(NCc2ccc3nccnc3c2)c1O[C@@H]1CCNC1` [compound 109, (R)-5-fluoro-4-(pyrrolidin-3-yloxy)-N-(quinoxalin-6-ylmethyl)pyridin-3-amine], the fold induction at 2 µM was 54.6. Take `Clc1cncc(NCc2ccc3nccnc3c2)c1O[C@@H]1CCNC1` [compound 110, (R)-5-chloro-4-(pyrrolidin-3-yloxy)-N-(quinoxalin-6-ylmethyl)pyridin-3-amine]: the fold induction at 2 µM came to 43.1.

For `Cc1cncc(NCc2ccc3nccnc3c2)c1O[C@@H]1CCNC1` [compound 111, (R)-5-methyl-4-(pyrrolidin-3-yloxy)-N-(quinoxalin-6-ylmethyl)pyridin-3-amine], the fold induction at 2 µM was 74. Turning to `Brc1cncc(NCc2ccc3nccnc3c2)c1OC1CNC1` [compound 112, 4-(azetidin-3-yloxy)-5-bromo-N-(quinoxalin-6-ylmethyl)pyridin-3-amine], the fold induction at 2 µM was found to be 40.9.

Consider `Cc1cncc(NCc2ccc3nccnc3c2)c1OC1CNC1` [compound 113, 4-(azetidin-3-yloxy)-5-methyl-N-(quinoxalin-6-ylmethyl)pyridin-3-amine], for which the fold induction at 2 µM amounted to 31.9. As to `c1cnc2cc(CNc3cnc4[nH]ccc4c3N3CCNCC3)ccc2n1` [compound 114, 4-(piperazin-1-yl)-N-(quinoxalin-6-ylmethyl)-1H-pyrrolo[2,3-b]pyridin-5-amine], the fold induction at 2 µM amounted to 60.1. Consider `c1ccc2c(N3CCNCC3)c(NCc3ccc4nccnc4c3)cnc2c1` [compound 115, 4-(piperazin-1-yl)-N-(quinoxalin-6-ylmethyl)quinolin-3-amine], for which the fold induction at 2 µM was 79. For the compound `COc1cc(N2CCNCC2)c(NCc2ccc3nccnc3c2)cn1` [compound 116, 6-methoxy-4-(piperazin-1-yl)-N-(quinoxalin-6-ylmethyl)pyridin-3-amine], the fold induction at 2 µM stood at 50.
